According to PubChem BioAssay AID1033 (Sanford-Burnham Center for Chemical Genomics, 2008):
Activity calls are given as the source filed them. The rule behind the calls is not given here.

Biological target: Chaperone protein DnaK (Escherichia coli (strain K12)) (UniProt P0A6Y8)
Experiment: E. coli DnaK SBD ligand binding – biophysical, NMR, chaperone (AID 1033)
Settings: Purified DnaK SBD

Chain of Chaperone protein DnaK (Escherichia coli (strain K12)) (P0A6Y8 whole entry, looked up): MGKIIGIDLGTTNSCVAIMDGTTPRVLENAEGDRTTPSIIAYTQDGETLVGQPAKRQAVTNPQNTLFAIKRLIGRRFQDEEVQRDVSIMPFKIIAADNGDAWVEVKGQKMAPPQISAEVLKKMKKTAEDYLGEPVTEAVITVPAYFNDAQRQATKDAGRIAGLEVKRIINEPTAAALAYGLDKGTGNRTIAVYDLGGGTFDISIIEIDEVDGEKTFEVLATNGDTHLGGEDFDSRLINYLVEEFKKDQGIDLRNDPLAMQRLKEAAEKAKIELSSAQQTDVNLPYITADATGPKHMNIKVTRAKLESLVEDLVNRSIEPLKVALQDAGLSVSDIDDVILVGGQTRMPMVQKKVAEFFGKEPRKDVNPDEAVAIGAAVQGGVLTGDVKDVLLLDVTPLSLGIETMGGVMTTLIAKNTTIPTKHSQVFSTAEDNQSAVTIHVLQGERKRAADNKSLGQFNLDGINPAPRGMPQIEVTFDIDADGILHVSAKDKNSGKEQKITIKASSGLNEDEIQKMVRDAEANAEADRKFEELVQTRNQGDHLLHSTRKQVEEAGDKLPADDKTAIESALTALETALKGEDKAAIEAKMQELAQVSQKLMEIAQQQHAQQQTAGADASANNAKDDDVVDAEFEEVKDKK

Row | SMILES | Kd
1 | O=C(c1cc2ccccc2o1)N1CCCCCC1 | > 4 mM (inactive)
2 | COC(=O)[C@@H]1OC(=O)[C@H]2O[C@@]23[C@@]1(C)CCC1[C@@]2(C)CCC(=O)C(C)(C)C2C[C@@H](OC(C)=O)[C@]13C (stereo partly specified) | > 4 mM (inactive)
3 | COc1ccc(N2CC(=O)NC2=O)cc1 | > 4 mM (inactive)
4 | COC(=O)Cc1cc(=O)n(-c2ccccc2)[nH]1 | > 4 mM (inactive)
5 | O=c1/c(=C/c2ccccc2F)sc2ncnn12 | > 4 mM (inactive)
6 | CN(C)S(=O)(=O)c1ccc(C(=O)NN)cc1 | > 4 mM (inactive)
7 | COc1ccc(C2(CN)CCOCC2)cc1OC | > 4 mM (inactive)
8 | Cc1sc2nc3n(c(=O)c2c1C)CCCS3 | > 4 mM (inactive)
9 | CS(=O)(=O)N1CCN(C(=O)Cc2cccs2)CC1 | > 4 mM (inactive)
10 | CCOC(=O)c1[nH]cnc1C(=O)OC(C)C | > 4 mM (inactive)
11 | O=C(c1ccccc1)N1CCOCC1 | > 4 mM (inactive)
12 | COc1c(O)cc(O)cc1O | > 4 mM (inactive)
13 | O=C(Nc1ccccc1)N1CCOCC1 | > 4 mM (inactive)
14 | CC(=O)O[C@H]1CC[C@@]2(C)C(C[C@@H](OC(C)=O)[C@@]3(C)C4=CC(=O)O[C@@H](c5ccoc5)[C@]4(C)CCC23)C1(C)C (stereo partly specified) | > 4 mM (inactive)
15 | CN1CCC(NC(=O)c2c(F)cccc2Cl)CC1 | > 4 mM (inactive)
16 | O=C(Nc1cccnc1)c1c(F)c(F)c(F)c(F)c1F | > 4 mM (inactive)
17 | CC1(C)Cc2cccc(CO)c2O1 | > 4 mM (inactive)
18 | O=C1NC(=Nc2ccc(O)cc2)S/C1=C/c1ccco1 | > 4 mM (inactive)
19 | COC(=O)c1cc2cc(N)ccc2s1 | > 4 mM (inactive)
20 | COc1cc(-c2nnc(NC(C)=O)o2)cc(OC)c1OC | > 4 mM (inactive)
21 | Cc1cn(C(=O)CN2C(=O)c3ccccc3C2=O)c(C)n1 | > 4 mM (inactive)
22 | CC(C)n1c(Nn2cnnc2)nc2ccccc21 | > 4 mM (inactive)
23 | COc1ccccc1CNc1nc2nc(C)cc(=O)n2[nH]1 | > 4 mM (inactive)

Row | SMILES | Kd
24 | C=C1C(N)CC2CC1C2(C)C (stereo unspecified) | > 4 mM (inactive)
25 | C=C1C[C@]23C[C@@]1(O)CC[C@H]2[C@@]12C=C[C@H](O)C(C)(C(=O)O1)[C@H]2[C@@H]3C(=O)O | > 4 mM (inactive)
26 | CCSc1nc(C)c(CC)c(C)c1C(N)=O | > 4 mM (inactive)
27 | CC(=O)Nc1nnc(-c2ccccc2S(C)(=O)=O)o1 | > 4 mM (inactive)
28 | O=C(OC[C@H]1O[C@H](OC(=O)c2cc(O)c(O)c(OC(=O)c3cc(O)c(O)c(O)c3)c2)[C@H](OC(=O)c2cc(O)c(O)c(OC(=O)c3cc(O)c(O)c(O)c3)c2)[C@@H](OC(=O)c2cc(O)c(O)c(OC(=O)c3cc(O)c(O)c(O)c3)c2)[C@@H]1OC(=O)c1cc(O)c(O)c(OC(=O)c2cc(O)c(O)c(O)c2)c1)c1cc(O)c(O)c(OC(=O)c2cc(O)c(O)c(O)c2)c1 | > 4 mM (inactive)
29 | c1ccc(Cn2cccc2)nc1 | > 4 mM (inactive)
30 | Cc1ccc(F)cc1NC(=O)c1ccc2c(c1)OCO2 | > 4 mM (inactive)
31 | O=C(NCc1ccccn1)c1ccccc1Cl | > 4 mM (inactive)
32 | O=C(O)c1cccc2c1OCCO2 | > 4 mM (inactive)
33 | COc1ccc2c(c1)OC/C(=C/c1ccc(O)c(O)c1)C2=O | > 4 mM (inactive)
34 | O=C(NC1CCS(=O)(=O)C1)c1ccccc1 (stereo unspecified) | > 4 mM (inactive)
35 | OC1(c2ccc(Cl)cc2)CCNCC1 | > 4 mM (inactive)
36 | NC(=O)C1(c2ccccc2)CCOCC1 | > 4 mM (inactive)
37 | Cc1cc(=O)oc2cc(O)c(O)cc12 | > 4 mM (inactive)
38 | CSc1n[nH]c(NCc2cccs2)n1 | > 4 mM (inactive)
39 | O=C(O)C1CC(=O)N(Cc2cccs2)C1 (stereo unspecified) | > 4 mM (inactive)
40 | Cc1occc(=O)c1O | > 4 mM (inactive)
41 | NS(=O)(=O)c1ccc(NC(=O)/C=C\C(=O)O)cc1 | > 4 mM (inactive)
42 | CSc1nc2nc(C)cc(=O)n2[nH]1 | > 4 mM (inactive)
43 | CC(=O)N1CCn2c3c(c(=O)c4cc(C)ccc42)CCC31 (stereo unspecified) | > 4 mM (inactive)
44 | c1ccc(C2NCCc3[nH]cnc32)cc1 (stereo unspecified) | > 4 mM (inactive)
45 | O=S(=O)(NCc1ccco1)N1CCOCC1 | > 4 mM (inactive)
46 | COc1ccc(-c2nnc(-c3ccc(N)cc3)o2)cc1 | > 4 mM (inactive)

Row | SMILES | Kd
47 | O=C1NCCCC1C(=O)N/N=C/c1ccccc1 (stereo unspecified) | > 4 mM (inactive)
48 | COc1cnn(-c2ccccc2)c(=O)c1N(C)C | > 4 mM (inactive)
49 | C/C(=C\CO)CC[C@H](C)CCC[C@H](C)CCCC(C)C | > 4 mM (inactive)
50 | COc1ccc2c(c1OC)C(=O)N(c1ncn[nH]1)C2 | > 4 mM (inactive)
51 | CC1=NN2C(=N)CC(=O)N=C2S1 | > 4 mM (inactive)
52 | CC1CC2(NC(=O)NC2=O)C(C)CN1C (stereo unspecified) | > 4 mM (inactive)
53 | Cc1nc(SCC#N)c2c3c(sc2n1)CCC3 | > 4 mM (inactive)
54 | O=C1CCC(=O)N1c1cccnc1 | > 4 mM (inactive)
55 | CCOC(=O)c1cnc2n(c1=O)CCS2 | > 4 mM (inactive)
56 | O=C(CN1C(=O)c2cccc3cccc(c23)C1=O)NO | > 4 mM (inactive)
57 | O=C(Cc1c(F)cccc1Cl)Nc1ccon1 | > 4 mM (inactive)
58 | O=S(=O)(N1CCCCC1)n1nnc2ccccc21 | inactive
59 | CC(=O)N/N=C(\C)c1cccc(N)c1 | > 4 mM (inactive)
60 | N#Cc1cc(-c2ccccc2)oc1N | > 4 mM (inactive)
61 | Nc1nnc(SCc2ccccc2Cl)s1 | > 4 mM (inactive)
62 | O=C(c1ncc[nH]1)c1ccccc1C(=O)N1CCOCC1 | > 4 mM (inactive)
63 | C=C[C@@]1(C)CC(=O)[C@@]2(O)[C@](C)(O1)[C@@H](OC(C)=O)[C@@H](O)C1C(C)(C)CC[C@H](O)[C@@]12C (stereo partly specified) | > 4 mM (inactive)
64 | Cn1ncc(C(=O)NC2CCCCC2)c1Cl | > 4 mM (inactive)
65 | C/C=C(\C)C(=O)OC1[C@@H]2C=C3C(CC[C@]4(C)C3CC(=O)O[C@H]4c3ccoc3)C(C)(C2=O)[C@@H](C(O)C(=O)OC)C1(C)C (stereo partly specified) | > 4 mM (inactive)
66 | Cc1cc(=O)[nH]c(N2CCCCC2)n1 | > 4 mM (inactive)
67 | COCCn1cnc2cc(C)c(C)cc21 | > 4 mM (inactive)
68 | COc1ccccc1NC(=O)C1CCCCC1 | > 4 mM (inactive)
69 | O=C1CSC(=Nc2ccc(C(=O)O)cc2)N1 | > 4 mM (inactive)

Row | SMILES | Kd
70 | O=C1NC(=S)N/C1=C/c1ccc(O)c(Cl)c1 | > 4 mM (inactive)
71 | Cc1ccc(CO)o1 | > 4 mM (inactive)
72 | Cc1oc(-c2ccccc2)cc1C(=O)O | > 4 mM (inactive)
73 | O=C1CC(N2CCC(O)CC2)C(=O)N1c1ccc(F)cc1 (stereo unspecified) | > 4 mM (inactive)
74 | COc1ccc(-c2coc3cc(OC(C)=O)cc(OC(C)=O)c3c2=O)cc1 | > 4 mM (inactive)
75 | CC(=O)c1ccc(NS(=O)(=O)c2cccc(C)c2)cc1 | > 4 mM (inactive)
76 | CC(=O)OC(C)(C)[C@@H]1Cc2cc3ccc(=O)oc3cc2O1 | > 4 mM (inactive)
77 | Cc1ccccc1NC(=O)CC1NCCNC1=O (stereo unspecified) | > 4 mM (inactive)
78 | NC(=O)C1CCN(C(=O)CN2CCc3ccccc32)CC1 | > 4 mM (inactive)
79 | CC(=O)O[C@@H]1C=C[C@@]2(C)C(C[C@@H](OC(C)=O)[C@@]3(C)C4=CC(=O)O[C@@H](c5ccoc5)[C@]4(C)CCC23)C1(C)C (stereo partly specified) | > 4 mM (inactive)
80 | CC1(C)CC2C1CCC1(C)OC2(C)CCC1O (stereo unspecified) | > 4 mM (inactive)
81 | O=C(O)Cc1c[nH]c2ccccc12 | > 4 mM (inactive)
82 | COc1cnn(Cc2ccccc2)c(=O)c1Cl | > 4 mM (inactive)
83 | Cc1nn(C)c(C)c1C(=O)O | > 4 mM (inactive)
84 | O=C1CCC(C(=O)NCc2ccc(Cl)cc2)N1 (stereo unspecified) | > 4 mM (inactive)
85 | Cn1cnnc1Sc1ncnc(N)c1[N+](=O)[O-] | > 4 mM (inactive)
86 | Nc1nnc(Cc2ccc(Cl)cc2)s1 | > 4 mM (inactive)
87 | Cc1ccc(SCc2cc(=O)n3[nH]cnc3n2)cc1 | > 4 mM (inactive)
88 | CC(C)CCCC(C)[C@H]1CCC2C3CC=C4C[C@@H](O)CC[C@]4(C)C3CC[C@@]21C (stereo partly specified) | > 4 mM (inactive)
89 | Cc1nc(SCC#N)c2c(C)c(C)sc2n1 | > 4 mM (inactive)
90 | Cc1nc2ccccc2c(=O)n1-c1cccc(O)c1 | > 4 mM (inactive)
91 | C[C@H]1C(=O)O[C@@H]2CCN3CC=C(COC(=O)[C@](C)(O)[C@]1(C)O)[C@H]23 | > 4 mM (inactive)
92 | S=c1nc(Cc2ccccc2)[nH][nH]1 | > 4 mM (inactive)

Row | SMILES | Kd
93 | NC(=O)C1CCN(c2nccc(C(F)(F)F)n2)CC1 | > 4 mM (inactive)
94 | Cn1nc(-c2cccs2)cc1N | > 4 mM (inactive)
95 | COc1ccc(-c2cc(=O)c3c(O)cc(O)c(-c4cc(-c5cc(=O)c6c(O)cc(O)cc6o5)ccc4OC)c3o2)cc1 | > 4 mM (inactive)
96 | Cc1nnc2sc(-c3csc4c3CCCC4)nn12 | > 4 mM (inactive)
97 | Cn1cnc2c(=S)[nH]c(=O)n(Cc3ccccc3)c21 | > 4 mM (inactive)
98 | Cc1ccc(CN2CCNC(=O)C2CC(=O)O)o1 (stereo unspecified) | > 4 mM (inactive)
99 | CC(=O)Oc1ccc(-c2nc(-c3cccnc3)no2)cc1 | > 4 mM (inactive)
100 | CNC(=S)N1CCN(C(=O)c2ccco2)CC1 | > 4 mM (inactive)
101 | O=C(c1cnsn1)N1CCN(c2ccccc2)CC1 | > 4 mM (inactive)
102 | Oc1ccc2c(c1)OCC1(O)Cc3cc(O)c(O)cc3C21 (stereo unspecified) | > 4 mM (inactive)
103 | COc1ccc(C(=O)/C=C/c2ccccc2)cc1 | > 4 mM (inactive)
104 | COc1cccc(N2CCNCC2)c1 | > 4 mM (inactive)
105 | OCCNc1nc2ccc(Cl)cc2[nH]1 | > 4 mM (inactive)
106 | CC(=O)OC[C@@]1(O)C[C@@]23CCC4c5ccoc5CC[C@]4(C)C2CC[C@@H]1C3 (stereo partly specified) | > 4 mM (inactive)
107 | COc1ccc(-c2cc(=O)c3c(O)cc(O[C@@H]4O[C@H](CO[C@H]5O[C@H](C)[C@@H](O)[C@H](O)[C@@H]5O)[C@@H](O)[C@H](O)[C@H]4O)cc3o2)cc1O | > 4 mM (inactive)
108 | O=c1cnnc(NCc2ccc(F)cc2)[nH]1 | > 4 mM (inactive)
109 | Cc1ccc2nc(NC(=O)CN3CCOCC3)sc2c1 | > 4 mM (inactive)
110 | Cc1nc2ccc(C(=O)O)cc2nc1C | > 4 mM (inactive)
111 | CN(C)C(=O)CSc1nc2ccccc2c(=O)[nH]1 | > 4 mM (inactive)
